Experimental data as given in patent publication US20150141460A1, “Anti-inflammatory Compositions” (Cambridge Enterprise Limited, priority 2007, published 2015).

Tested on: leukocytes in BAL fluid
Assay: Ovalbumin-induced lung inflammation model of asthma, cell counts in BAL fluid
Type: in vivo, Brown Norway rats
Conditions: 0.3 mg/kg daily by oral gavage day 8 to 21; p<0.01
From the text: Bars represent mean cell counts, shown on the Y axis in units of 10^6 cells, for groups of […] with whiskers representing SEM; * p<0.01 versus ‘sensitised’ using Student's unpaired t-test assuming equal variance, with two tails). The horizontal line represents the average number of leukocytes present in BAL fluid from the lungs of unchallenged rats. All rats in the remaining three groups received the same sensitisation and challenge regimen, but were either treated with vehicle only (‘Sensitised’), or with compound (I′) at 0.3 mg/kg bodyweight or with monteleukast (‘Singulair™’) at 30 mg/kg bodyweight, all administered daily by oral gavage.
Adult Brown Norway rats (200-300 g body weight; n=10 per group) were sensitised by a single intraperitoneal injection of 0.1 mg Ovalbumin on day 0. Each rat then received an intratracheal challenge with a solution of 1% ovalbumin (w/v) on day 8, and with 2% ovalbumin (w/v) on days 15, 18 and 21. The animals were then sacrificed 3 hours after the final challenge on day 21. […]
On sacrifice, total lung leukocyate recruitment was assessed by performing a broncheoalveolar lavage (BAL) using 4 lots of 3 ml sterile phosphate-buffered saline introduced through a tracheal cannula. For each animal, the BAL washes were combined, and the total cell population counted (using a haemocytometer). […]

Compound: CC(C)(C)C(=O)N[C@H]1CCCNC1=O [Compound (I′), (S)-3-(2′,2′-dimethylpropanoylamino)-tetrahydropyridin-2-one]
- reduction of the number of leukocytes in the BAL washes: 70%
